# In US4649215A, “Aliphatic thioethers” (Ciba-Geigy Corporation, priority 1984, dated 1987):
# Where a name gives a salt, the structure may show the parent alone.
# Tests used:
# [1] = target: phospholipase A2 from human leucocytes; experiment: inhibition of phospholipase A2 obtained from human leucocytes; assay type: biochemical; settings: human leucocyte enzyme, 37° 1 hour, pH 7, 14C-oleic acid labelled E. coli phospholipides
# Description: Human neutrophilic polymorphonuclear leucocytes are isolated from "buffy coats" by multistage fractional sedimentation and deep-frozen. Phospholipase A2 is extracted from the cell suspension by homogenisation with the addition of icecold 0.36N H2 SO4 in 2N NaCl, and the supernatant obtained after centrifugation at 10,000× g is dialysed against sodium acetate buffer pH 4.5.
# In order to determine the enzyme activity, enzyme (10-30 μg protein) is incubated at 37° for 1 hour in 0.1M tris/HCl buffer pH 7 with the addition of 1 mM CaCl2 and substrate consisting of phospholipides (2 μm) of Escherichia coli that have been radioactively labelled with ^14 C-oleic acid by means of biosynthesis. The reaction is stopped by the addition of Dole reagent (isopropanol/heptane/1N H2 SO4 40:10:1, v/v) and the ^14 C-oleic acid selectively released by phospholipase A2 is extracted. Substrate also extracted at the same time is completely removed by filtering the extract through a column of silica gel. The ^14 C-oleic acid in the eluate is determined by radiometry.
# In order to ascertain the inhibitory action of test substances on phospholipase A2, these substances are added in the form of solutions in water, dimethyl sulphoxide (final concentration in the mixture up to 5% v/v) or ethanol (final concentration in the mixture up to 2.5% v/v) to the incubation mixture. […]
# [2] = target: phospholipase C from human thrombocytes; experiment: inhibition of phospholipase C obtained from human thrombocytes; assay type: biochemical; settings: human thrombocyte enzyme, 37° 5 minutes, pH 6, phosphatidyl-[14C]-inositol
# Description: To ascertain the enzyme activity, enzyme (20-100 μg protein) is incubated at 37° for 5 minutes in 0.025M tris/malate buffer pH 6 with the addition of 0.2 mM CaCl2 and 0.02 mM radioactively labelled substrate, phosphatidyl-[^14 C]-inositol. The reaction is stopped by extraction by shaking with CHCl3 /CH3 OH 2:1 (v/v). In the course of this unconsumed substrate is extracted into the organic phase, whilst the reaction product, ^14 C-inositol phosphate, remains in the aqueous phase and can be measured by radiometry of an aliquot.
# In order to ascertain the inhibitory action of test substances on phospholipase C, these substances are added in the form of solutions in water, dimethyl sulphoxide (final concentration in the mixture up to 5%, v/v) or ethanol (final concentration in the mixture up to 2.5%, v/v) to the incubation mixture. The strength of action of the test substances is expressed by the IC50, that is to say the concentration that causes a 50% inhibition of the control activity. The IC50 is ascertained on a graph by plotting the percentage inhibition on the ordinate against the log of the concentration (μM) on the abscissa.
# [3] = test system: leucotrienes; experiment: leucotriene-antagonistic activity (test not specified); settings: reverse absolute configuration at C-5 and C-6 compared with natural leucotrienes
# Description: Thus, in various test arrangements in vitro they have a clear leucotriene-antagonistic action.
# As already mentioned above, there is a general analogy between the structure of the compounds of the formula I according to the invention and that of leucotrienes, especially in the obligatory trans-configuration of the vicinal S- and O-atoms mentioned at the beginning and the total structure of the mercaptoalkanoic acid residue (A) (especially in its typical form of a cysteine peptide). They differ from leucotrienes essentially in lacking the characteristic terminal carboxy group in the olefinic radical (B).
IC50 [1] [mM],IC50 [2] [µM],SMILES,"activity (leucotriene antagonism), in words [3]"
1.6,20,CCN(CC)CCCC(C)Nc1c2ccc(Cl)cc2nc2ccc(OC)cc12 (stereo not drawn) [mepacrine],
,,"CCCCCCCC\C=C/C=C/C=C/[C@H](SCC(NC(=O)C(F)(F)F)C(=O)NCC(=O)O)[C@H](O)CCCC (stereo partly drawn) [Example 60A, Sodium salt of N-[S-5(R),6(S)-5-hydroxy-7,9-trans-11-cis-icosatrien-6-yl-N-trifluoroacetylcysteinyl]-glycine]",highly active
